Laboratory results from ChEMBL document CHEMBL5465560, “Selectivity Literature for EUbOPEN Chemogenomic Library” (2024).

Assays:
[1] = target: Ribosomal protein S6 kinase alpha-3 (Homo sapiens, UniProt P51812); experiment: Selectivity interaction (Kinase panel (literature)) EUB0001199aCl RPS6KA3; conditions: at 1 µM
[2] = target: Ribosomal protein S6 kinase alpha-1 (Homo sapiens, UniProt Q15418); experiment: Selectivity interaction (Kinase panel (DSF assay)) EUB0001558a RPS6KA1
[3] = target: T1, Dual serine/threonine and tyrosine protein kinase (Homo sapiens) (UniProt Q6XUX3); experiment: Selectivity interaction (KinomeScan (DiscoverX)) EUB0001550a DSTYK; conditions: at 1 µM
T1 sequence (whole entry): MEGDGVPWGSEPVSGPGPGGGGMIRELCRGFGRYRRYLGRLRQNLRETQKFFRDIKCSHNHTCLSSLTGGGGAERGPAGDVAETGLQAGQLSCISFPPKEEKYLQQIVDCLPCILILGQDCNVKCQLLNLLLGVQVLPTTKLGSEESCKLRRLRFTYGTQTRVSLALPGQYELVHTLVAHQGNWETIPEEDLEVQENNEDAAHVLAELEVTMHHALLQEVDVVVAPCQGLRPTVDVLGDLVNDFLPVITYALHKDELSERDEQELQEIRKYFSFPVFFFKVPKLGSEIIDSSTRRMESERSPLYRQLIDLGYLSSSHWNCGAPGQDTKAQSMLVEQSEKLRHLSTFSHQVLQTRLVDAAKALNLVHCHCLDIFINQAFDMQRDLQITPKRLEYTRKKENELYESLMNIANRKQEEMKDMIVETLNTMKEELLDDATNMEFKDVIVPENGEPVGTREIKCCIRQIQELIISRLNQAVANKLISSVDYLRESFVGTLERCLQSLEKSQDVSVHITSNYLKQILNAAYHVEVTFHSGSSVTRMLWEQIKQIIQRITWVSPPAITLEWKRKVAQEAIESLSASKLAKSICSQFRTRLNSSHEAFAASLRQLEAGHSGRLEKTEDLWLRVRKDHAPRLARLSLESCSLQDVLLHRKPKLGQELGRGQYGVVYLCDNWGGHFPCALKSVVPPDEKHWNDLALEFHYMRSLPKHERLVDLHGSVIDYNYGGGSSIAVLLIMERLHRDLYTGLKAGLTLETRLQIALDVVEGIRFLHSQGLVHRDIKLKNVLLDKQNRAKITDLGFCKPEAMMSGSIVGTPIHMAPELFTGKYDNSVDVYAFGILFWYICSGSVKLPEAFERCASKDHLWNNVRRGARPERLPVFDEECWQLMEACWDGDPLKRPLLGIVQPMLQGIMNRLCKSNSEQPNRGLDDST

[4] = target: Cyclin-dependent kinase 13 (Homo sapiens, UniProt Q14004); experiment: Selectivity interaction (KinomeScan (DiscoverX)) EUB0000092b CDK13; conditions: at 10 µM
Chain of Cyclin-dependent kinase 13 (Q14004 whole entry, looked up): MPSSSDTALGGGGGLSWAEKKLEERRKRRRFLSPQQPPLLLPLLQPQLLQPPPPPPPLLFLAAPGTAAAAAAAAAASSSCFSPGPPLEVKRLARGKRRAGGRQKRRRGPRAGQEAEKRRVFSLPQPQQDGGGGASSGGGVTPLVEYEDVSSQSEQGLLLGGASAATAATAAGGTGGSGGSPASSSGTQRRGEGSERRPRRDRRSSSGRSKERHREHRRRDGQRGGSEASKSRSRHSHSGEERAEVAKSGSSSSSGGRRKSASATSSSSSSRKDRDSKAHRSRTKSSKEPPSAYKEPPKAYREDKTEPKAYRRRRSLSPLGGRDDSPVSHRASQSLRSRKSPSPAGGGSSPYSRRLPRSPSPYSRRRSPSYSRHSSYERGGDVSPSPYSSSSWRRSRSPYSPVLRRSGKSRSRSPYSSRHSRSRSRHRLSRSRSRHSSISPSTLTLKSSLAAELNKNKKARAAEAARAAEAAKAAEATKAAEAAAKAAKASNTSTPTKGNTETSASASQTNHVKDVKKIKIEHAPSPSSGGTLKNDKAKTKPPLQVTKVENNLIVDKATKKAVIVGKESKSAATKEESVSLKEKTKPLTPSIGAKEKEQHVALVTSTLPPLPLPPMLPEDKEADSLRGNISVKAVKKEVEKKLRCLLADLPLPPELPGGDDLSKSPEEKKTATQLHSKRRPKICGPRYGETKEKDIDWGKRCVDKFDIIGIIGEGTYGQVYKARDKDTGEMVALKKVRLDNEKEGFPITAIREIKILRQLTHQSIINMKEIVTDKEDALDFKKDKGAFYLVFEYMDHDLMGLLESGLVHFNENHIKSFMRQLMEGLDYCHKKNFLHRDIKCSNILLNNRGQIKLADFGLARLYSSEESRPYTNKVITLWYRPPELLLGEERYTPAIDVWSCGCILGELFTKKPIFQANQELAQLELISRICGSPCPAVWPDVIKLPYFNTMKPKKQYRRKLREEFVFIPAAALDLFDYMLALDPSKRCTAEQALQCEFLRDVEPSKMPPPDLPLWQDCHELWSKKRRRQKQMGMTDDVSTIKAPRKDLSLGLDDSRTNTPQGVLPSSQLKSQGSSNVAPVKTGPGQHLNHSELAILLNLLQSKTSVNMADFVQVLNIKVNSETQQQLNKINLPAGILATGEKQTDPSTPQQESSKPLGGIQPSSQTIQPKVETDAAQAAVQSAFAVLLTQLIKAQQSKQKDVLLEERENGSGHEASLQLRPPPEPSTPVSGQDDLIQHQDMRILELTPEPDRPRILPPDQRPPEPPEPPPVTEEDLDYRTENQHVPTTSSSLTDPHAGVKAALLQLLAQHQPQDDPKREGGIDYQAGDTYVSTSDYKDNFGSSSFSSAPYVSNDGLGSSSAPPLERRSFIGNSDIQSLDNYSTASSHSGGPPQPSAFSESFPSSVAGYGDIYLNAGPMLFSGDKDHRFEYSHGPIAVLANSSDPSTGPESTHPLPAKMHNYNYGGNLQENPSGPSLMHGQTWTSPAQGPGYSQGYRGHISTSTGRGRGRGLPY

[5] = target: T2, NUAK family SNF1-like kinase 1 (Homo sapiens) (UniProt O60285); experiment: Selectivity interaction (KinomeScan (DiscoverX)) EUB0000092b NUAK1; conditions: at 10 µM
T2 sequence (whole entry): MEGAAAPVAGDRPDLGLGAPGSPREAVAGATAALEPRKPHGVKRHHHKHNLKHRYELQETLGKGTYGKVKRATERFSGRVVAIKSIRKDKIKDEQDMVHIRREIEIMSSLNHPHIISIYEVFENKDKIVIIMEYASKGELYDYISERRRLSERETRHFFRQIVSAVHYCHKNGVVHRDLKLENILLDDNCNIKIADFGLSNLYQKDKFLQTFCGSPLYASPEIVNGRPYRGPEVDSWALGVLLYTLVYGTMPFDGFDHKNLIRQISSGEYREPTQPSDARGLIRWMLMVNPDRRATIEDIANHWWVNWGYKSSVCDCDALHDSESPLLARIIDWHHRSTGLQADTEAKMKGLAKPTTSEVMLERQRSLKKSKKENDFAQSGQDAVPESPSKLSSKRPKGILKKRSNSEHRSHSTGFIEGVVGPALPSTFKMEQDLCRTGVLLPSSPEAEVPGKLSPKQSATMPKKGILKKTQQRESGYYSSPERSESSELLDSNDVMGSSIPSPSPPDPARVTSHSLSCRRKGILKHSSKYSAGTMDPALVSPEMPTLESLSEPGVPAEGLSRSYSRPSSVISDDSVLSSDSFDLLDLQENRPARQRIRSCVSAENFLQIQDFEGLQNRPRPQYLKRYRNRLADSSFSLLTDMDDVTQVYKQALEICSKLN

[6] = target: Dual specificity mitogen-activated protein kinase kinase 2 (Homo sapiens) (UniProt P36507); experiment: Selectivity interaction (KinomeScan (DiscoverX)) EUB0001619a MAP2K2; conditions: at 1 µM
Chain of Dual specificity mitogen-activated protein kinase kinase 2 (Homo sapiens) (P36507 whole entry): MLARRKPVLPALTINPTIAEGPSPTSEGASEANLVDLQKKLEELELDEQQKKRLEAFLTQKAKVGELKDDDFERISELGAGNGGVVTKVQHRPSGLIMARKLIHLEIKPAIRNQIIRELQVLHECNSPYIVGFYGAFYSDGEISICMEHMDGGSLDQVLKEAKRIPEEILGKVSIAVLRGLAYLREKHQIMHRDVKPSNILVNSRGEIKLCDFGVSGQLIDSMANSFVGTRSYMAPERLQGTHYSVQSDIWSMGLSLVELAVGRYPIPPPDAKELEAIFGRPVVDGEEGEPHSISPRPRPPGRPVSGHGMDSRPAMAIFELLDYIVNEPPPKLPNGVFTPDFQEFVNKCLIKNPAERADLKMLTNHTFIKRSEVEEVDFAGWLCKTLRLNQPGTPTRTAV

[7] = target: Glycogen synthase kinase-3 alpha (Homo sapiens, UniProt P49840); experiment: Selectivity interaction (Upstate Kinase Profiler service (Millipore)) EUB0000056c GSK3A; conditions: at 1 µM
Chain of Glycogen synthase kinase-3 alpha (P49840 2-483 limits assumed): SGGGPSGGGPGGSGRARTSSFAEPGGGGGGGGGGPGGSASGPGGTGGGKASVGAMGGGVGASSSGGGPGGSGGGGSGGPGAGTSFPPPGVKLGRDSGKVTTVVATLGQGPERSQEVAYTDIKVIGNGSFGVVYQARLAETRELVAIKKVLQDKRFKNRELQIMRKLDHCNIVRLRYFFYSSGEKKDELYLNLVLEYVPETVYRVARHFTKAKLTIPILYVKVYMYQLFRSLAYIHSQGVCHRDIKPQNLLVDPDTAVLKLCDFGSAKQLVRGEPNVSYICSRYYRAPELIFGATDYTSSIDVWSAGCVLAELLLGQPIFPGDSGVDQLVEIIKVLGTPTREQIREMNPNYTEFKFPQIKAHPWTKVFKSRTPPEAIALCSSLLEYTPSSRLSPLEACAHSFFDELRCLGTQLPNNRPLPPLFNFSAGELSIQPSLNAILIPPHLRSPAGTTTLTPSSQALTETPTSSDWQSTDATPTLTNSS

[8] = target: Death-associated protein kinase 2 (Homo sapiens) (UniProt Q9UIK4); experiment: Selectivity interaction (LanthaScreen Eu Kinase Binding Assay) EUB0001632a DAPK2; conditions: at 10 µM
Chain of Death-associated protein kinase 2 (Homo sapiens) (Q9UIK4 whole entry, looked up): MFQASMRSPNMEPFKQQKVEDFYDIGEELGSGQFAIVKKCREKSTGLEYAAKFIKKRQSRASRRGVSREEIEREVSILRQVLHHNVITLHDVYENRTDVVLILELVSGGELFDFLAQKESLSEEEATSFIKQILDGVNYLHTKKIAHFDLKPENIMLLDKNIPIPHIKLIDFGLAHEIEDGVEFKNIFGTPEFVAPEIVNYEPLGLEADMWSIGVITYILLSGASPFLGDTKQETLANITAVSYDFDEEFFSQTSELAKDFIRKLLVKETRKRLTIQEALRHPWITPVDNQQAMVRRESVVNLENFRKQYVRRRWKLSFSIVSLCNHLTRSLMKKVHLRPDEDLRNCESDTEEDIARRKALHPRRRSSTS

[9] = target: T3, cGMP-dependent protein kinase 2 (Homo sapiens) (UniProt Q13237); experiment: Selectivity interaction (ProQinase) EUB0000171b PRKG2
T3 sequence (whole entry): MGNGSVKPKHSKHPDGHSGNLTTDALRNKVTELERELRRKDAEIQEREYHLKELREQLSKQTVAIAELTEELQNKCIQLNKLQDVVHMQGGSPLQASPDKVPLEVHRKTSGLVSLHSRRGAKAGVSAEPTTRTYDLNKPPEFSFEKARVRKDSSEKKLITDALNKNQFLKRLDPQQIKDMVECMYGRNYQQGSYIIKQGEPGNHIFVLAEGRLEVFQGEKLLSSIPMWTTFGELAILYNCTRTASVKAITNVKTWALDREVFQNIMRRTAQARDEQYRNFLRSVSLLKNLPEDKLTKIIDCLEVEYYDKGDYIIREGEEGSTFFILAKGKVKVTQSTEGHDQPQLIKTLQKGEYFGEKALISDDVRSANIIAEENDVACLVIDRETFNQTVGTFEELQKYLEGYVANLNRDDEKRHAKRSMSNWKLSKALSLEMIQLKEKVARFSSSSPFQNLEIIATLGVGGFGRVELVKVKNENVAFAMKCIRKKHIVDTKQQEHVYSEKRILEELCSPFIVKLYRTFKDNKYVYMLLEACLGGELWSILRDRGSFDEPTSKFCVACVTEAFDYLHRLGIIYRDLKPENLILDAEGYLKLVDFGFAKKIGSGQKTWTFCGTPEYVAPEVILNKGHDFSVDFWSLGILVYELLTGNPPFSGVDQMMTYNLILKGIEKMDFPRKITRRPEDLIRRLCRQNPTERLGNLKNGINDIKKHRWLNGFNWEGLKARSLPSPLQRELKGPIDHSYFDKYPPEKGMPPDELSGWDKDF

Chain of Ribosomal protein S6 kinase alpha-3 (P51812 whole entry): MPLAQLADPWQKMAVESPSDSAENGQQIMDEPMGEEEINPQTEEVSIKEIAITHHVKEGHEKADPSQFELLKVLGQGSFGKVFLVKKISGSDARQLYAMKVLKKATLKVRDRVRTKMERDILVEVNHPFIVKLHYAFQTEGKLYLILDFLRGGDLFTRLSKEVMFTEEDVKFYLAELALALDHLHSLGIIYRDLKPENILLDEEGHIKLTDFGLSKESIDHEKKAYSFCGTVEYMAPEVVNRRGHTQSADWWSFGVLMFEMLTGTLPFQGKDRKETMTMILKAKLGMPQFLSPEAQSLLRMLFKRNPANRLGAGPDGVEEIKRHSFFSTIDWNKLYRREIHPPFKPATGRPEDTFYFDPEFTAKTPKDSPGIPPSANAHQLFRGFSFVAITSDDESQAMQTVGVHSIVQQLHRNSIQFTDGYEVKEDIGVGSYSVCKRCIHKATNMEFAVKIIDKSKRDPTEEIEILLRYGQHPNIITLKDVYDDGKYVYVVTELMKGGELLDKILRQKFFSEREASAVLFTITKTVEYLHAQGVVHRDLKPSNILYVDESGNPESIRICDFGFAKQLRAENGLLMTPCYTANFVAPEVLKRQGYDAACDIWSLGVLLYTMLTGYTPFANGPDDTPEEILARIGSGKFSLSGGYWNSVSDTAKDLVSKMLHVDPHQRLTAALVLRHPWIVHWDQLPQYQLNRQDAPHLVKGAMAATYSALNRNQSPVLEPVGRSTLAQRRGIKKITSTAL
Chain of Ribosomal protein S6 kinase alpha-1 (Q15418 whole entry): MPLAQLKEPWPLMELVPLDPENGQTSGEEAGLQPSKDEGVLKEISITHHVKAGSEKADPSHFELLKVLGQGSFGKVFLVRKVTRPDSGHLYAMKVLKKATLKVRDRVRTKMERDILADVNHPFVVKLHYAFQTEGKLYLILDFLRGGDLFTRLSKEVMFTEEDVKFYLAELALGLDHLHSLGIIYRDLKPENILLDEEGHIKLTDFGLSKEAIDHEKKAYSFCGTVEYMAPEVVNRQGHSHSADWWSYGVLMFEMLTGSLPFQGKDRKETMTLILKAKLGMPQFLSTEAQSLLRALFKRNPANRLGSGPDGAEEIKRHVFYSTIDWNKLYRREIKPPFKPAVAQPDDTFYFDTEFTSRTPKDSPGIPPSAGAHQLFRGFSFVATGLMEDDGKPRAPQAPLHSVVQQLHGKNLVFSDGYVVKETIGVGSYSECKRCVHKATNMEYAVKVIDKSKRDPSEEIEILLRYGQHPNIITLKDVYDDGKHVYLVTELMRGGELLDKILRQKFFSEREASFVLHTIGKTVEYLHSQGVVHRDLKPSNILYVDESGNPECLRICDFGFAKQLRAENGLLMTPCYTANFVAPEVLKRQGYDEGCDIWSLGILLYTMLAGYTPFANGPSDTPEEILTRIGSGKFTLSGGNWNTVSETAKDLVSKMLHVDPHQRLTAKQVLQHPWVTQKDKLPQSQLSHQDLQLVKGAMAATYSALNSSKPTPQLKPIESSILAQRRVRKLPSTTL

In the case of `CN1Cc2nccc(-c3cn(C)nc3-c3ccc(F)cc3)c2C1=O`, the % of inhibition [1] is reported as 0%.

Molecule `CC(C)(O)[C@H](F)CN1Cc2cc(NC(=O)c3cnn4cccnc34)c(N3CCOCC3)cc2C1=O` has a dTM [2] of -0.2 K.

Work on `CN(C)CC#Cc1ccc2[nH]c3c(c2c1)-c1nc(N)ncc1CCC3` yielded a % of control [3] of 5.2%.

Work on `CCC(=O)N1CCN(c2ccc(-n3c(=O)ccc4cnc5ccc(-c6cnc7ccccc7c6)cc5c43)cc2C(F)(F)F)CC1` yielded a % of control [4] of 80% and a % of control [5] of 100%.

`N#Cc1cccc(-c2c[nH]c3ncnc(N4CCOCC4)c23)c1` was tested, and the % of control [6] was 19%.

Work on `Cc1ccc(-c2ccc3c(ccc4sc5c(c43)NC[C@@H](C)NC5=O)n2)cn1` yielded a % of inhibition [7] of 2%.

Molecule `Cn1cc(-n2cnc3c(NCc4nc5cc(Cl)c(Cl)cc5[nH]4)nc(N4CCOCC4)nc32)cn1` has a % of inhibition [8] of -5.23%.

For `C=CC(=O)Nc1cccc(C(=O)Nc2ccc(Nc3cc(-c4[nH]c(SC)nc4C)ccn3)cc2)c1`, the % of control ([9]; at 1 µM) was 84% and the % of control ([9]; at 5 µM) was 81%.
